Activity calls are given as the source filed them. The calls are words filed in the database; no cut-off is given here. Where only a bound is given, the exact number is not on record here.

Data set [1] is described as follows: Volume of distribution in BALB/c mouse at 20 mg/kg, ip measured upto 24 hrs by LC-MS/MS analysis. It is filed as ADME, organism-based. Conditions: in vivo.
In data set [2] the test system is HCT-116. Put plainly: Induction of cell cycle arrest in human HCT-116 cells assessed as accumulation of cells at G1 phase at 2 uM incubated for 24 hrs by RNase/PI staining-based FACS flow cytometry analysis (reference value: 51 %). It is filed as functional. In general terms: In flow cytometry, cells or beads pass a laser one at a time.
Data set [3] relates to HCT-116. Briefly: Inhibition of epithelial-to-mesenchymal transition in human HCT-116 cells assessed as reduction in VEGF-induced cell scattering incubated for 48 hrs by inverted microscopic analysis. It is filed as functional, cell-based.
Data set [4] relates to HCT-116. Put plainly: Inhibition of DNA repairing pathway in human HCT-116 cells assessed as downregulation of XRCC11 protein expression at 0.25 to 2 uM incubated for 24 hrs by immunoblotting analysis. It is filed as functional, cell-based. Conditions: dose 0.25-2 µM.
Another data set deals with PC-3. Put plainly: Antiproliferative activity against human PC-3 cells assessed as cell growth inhibition incubated for 44 hrs by MTT assay. It is filed as functional, cell-based. Conditions: PC-3, 44 h.
Data set [5] has as its system HCT-116. Briefly: Induction of cell cycle arrest in human HCT-116 cells assessed as accumulation of cells at G2 phase at 2 uM incubated for 24 hrs by RNase/PI staining-based FACS flow cytometry analysis (reference value: 33 %). It is filed as functional.
Data set [6] can be described thus: Drug exposure in BALB/c mouse plasma at 20 mg/kg, ip measured upto 24 hrs by LC-MS/MS analysis. It is filed as ADME, organism-based. Details: dose 20 mg/kg, time < 24 hrs, route ip.
Data set [7] concerns HCT-116. Briefly: Induction of DNA damage in human HCT-116 cells assessed as increase in phosphorylated gamma-H2AX foci formation at 0.5 to 2 uM incubated for 24 hrs by DAPI staining based immunofluorescence analysis. It is filed as functional, cell-based. The following applies: dose 0.5-2 µM.
The subject of data set [8] is HCT-116. Briefly: Inhibition of DNA repairing pathway in human HCT-116 cells assessed as downregulation of MRE11 protein expression at 0.25 to 2 uM incubated for 24 hrs by immunoblotting analysis. Conditions: dose 0.25-2 µM. It is filed as functional, cell-based. (A western blot detects proteins with antibodies after separation by electrophoresis.)
The test system of data set [9] is HCT-116. Briefly: Induction of DNA damage in human HCT-116 cells assessed as micronuclei formation at 0.5 to 2 uM incubated for 24 hrs by DAPI staining based immunofluorescence analysis. It is filed as functional, cell-based. Conditions: dose 0.5-2 µM.
Data set [10] is described as follows: AUC (0 to t) in BALB/c mouse at 20 mg/kg, ip measured upto 24 hrs by LC-MS/MS analysis. It is filed as ADME, organism-based. More on the design: time < 24 hrs, dose 20 mg/kg, route ip. Conditions: in vivo.

`COC(=O)[C@]1([C@H]2CCn3c2nc2ccccc2c3=O)NCCc2c1[nH]c1ccccc21` (racemic) gave a Vd in data set [1] of 4.4 L/kg. The results for the Activity in the data set on HCT-116 [2] and in the data set with HCT-116 [5] were 74% and 21%, respectively. Besides, the inhibition entry in the data set on HCT-116 [3], in the data set with HCT-116 [4] and with HCT-116 [8] was “Active” in each case. Moreover, the 50% inhibitory concentration (IC50) in the data set on PC-3 turned out to be 6.05 µM. The compound further showed an AUC at 24 h in data set [6] of more than 25 µM·h. Also, the result in the data set on HCT-116 [7] and in the data set on HCT-116 [9] was Active. In [10], this compound registered an AUC(0-t) at 24 h of 11000 ng·h/mL.

For orientation: IC50 means the point on the concentration scale where inhibition reaches its midpoint. Usually AUC stands for the area under the concentration-time curve, a measure of exposure. Low readings indicate low exposure, high ones high exposure. What is called AUC(0-t) is the area under the concentration-time curve up to a stated or last time point.

(Values after ChEMBL document CHEMBL5325471, “Identification of new modulator of DNA repairing pathways based on natural product (±)-peharmaline A” (Bioorg Med Chem, 2023).)
